Measured values from the NIST ThermoML archive (doi:10.1016/j.jct.2016.08.005).

Settings: Liquid, Vibrating tube method

c1ccsc1 [thiophene]
Settings | mass density [kg/m3]
283.15 K, 100 kPa | 1076.4
283.15 K, 2000 kPa | 1077.94
283.15 K, 5000 kPa | 1080.27
283.15 K, 7000 kPa | 1081.81
283.15 K, 10000 kPa | 1084.09
283.15 K, 15000 kPa | 1087.78
283.15 K, 20000 kPa | 1091.37
283.15 K, 25000 kPa | 1094.82
283.15 K, 30000 kPa | 1098.18
283.15 K, 35000 kPa | 1101.44
283.15 K, 40000 kPa | 1104.61
283.15 K, 45000 kPa | 1107.7
283.15 K, 50000 kPa | 1110.71
283.15 K, 55000 kPa | 1113.62
283.15 K, 60000 kPa | 1116.47
283.15 K, 65000 kPa | 1119.27
288.15 K, 100 kPa | 1070.54
288.15 K, 2000 kPa | 1072.11
288.15 K, 5000 kPa | 1074.53
288.15 K, 7000 kPa | 1076.12
288.15 K, 10000 kPa | 1078.46
288.15 K, 15000 kPa | 1082.24
288.15 K, 20000 kPa | 1085.9
288.15 K, 25000 kPa | 1089.45
288.15 K, 30000 kPa | 1092.91
288.15 K, 35000 kPa | 1096.24
288.15 K, 40000 kPa | 1099.5
288.15 K, 45000 kPa | 1102.65
288.15 K, 50000 kPa | 1105.72
288.15 K, 55000 kPa | 1108.7
288.15 K, 60000 kPa | 1111.61
288.15 K, 65000 kPa | 1114.44
293.15 K, 100 kPa | 1064.59
293.15 K, 2000 kPa | 1066.21
293.15 K, 5000 kPa | 1068.67
293.15 K, 7000 kPa | 1070.33
293.15 K, 10000 kPa | 1072.75
293.15 K, 15000 kPa | 1076.63
293.15 K, 20000 kPa | 1080.39
293.15 K, 25000 kPa | 1084.05
293.15 K, 30000 kPa | 1087.58
293.15 K, 35000 kPa | 1091.01
293.15 K, 40000 kPa | 1094.34
293.15 K, 45000 kPa | 1097.57
293.15 K, 50000 kPa | 1100.7
293.15 K, 55000 kPa | 1103.77
293.15 K, 60000 kPa | 1106.72
293.15 K, 65000 kPa | 1109.63
298.15 K, 100 kPa | 1058.65
298.15 K, 2000 kPa | 1060.32
298.15 K, 5000 kPa | 1062.91
298.15 K, 7000 kPa | 1064.57
298.15 K, 10000 kPa | 1067.05
298.15 K, 15000 kPa | 1071.07
298.15 K, 20000 kPa | 1074.94
298.15 K, 25000 kPa | 1078.69
298.15 K, 30000 kPa | 1082.3
298.15 K, 35000 kPa | 1085.81
298.15 K, 40000 kPa | 1089.21
298.15 K, 45000 kPa | 1092.53
298.15 K, 50000 kPa | 1095.73
298.15 K, 55000 kPa | 1098.86
298.15 K, 60000 kPa | 1101.89
298.15 K, 65000 kPa | 1104.85
303.15 K, 100 kPa | 1052.71
303.15 K, 2000 kPa | 1054.43
303.15 K, 5000 kPa | 1057.07
303.15 K, 7000 kPa | 1058.82
303.15 K, 10000 kPa | 1061.36
303.15 K, 15000 kPa | 1065.48
303.15 K, 20000 kPa | 1069.46
303.15 K, 25000 kPa | 1073.3
303.15 K, 30000 kPa | 1077.03
303.15 K, 35000 kPa | 1080.62
303.15 K, 40000 kPa | 1084.1
303.15 K, 45000 kPa | 1087.49
303.15 K, 50000 kPa | 1090.79
303.15 K, 55000 kPa | 1093.96
303.15 K, 60000 kPa | 1097.06
303.15 K, 65000 kPa | 1100.09
308.15 K, 100 kPa | 1046.7
308.15 K, 2000 kPa | 1048.48
308.15 K, 5000 kPa | 1051.21
308.15 K, 7000 kPa | 1052.99
308.15 K, 10000 kPa | 1055.61
308.15 K, 15000 kPa | 1059.87
308.15 K, 20000 kPa | 1063.97
308.15 K, 25000 kPa | 1067.92
308.15 K, 30000 kPa | 1071.73
308.15 K, 35000 kPa | 1075.4
308.15 K, 40000 kPa | 1078.99
308.15 K, 45000 kPa | 1082.45
308.15 K, 50000 kPa | 1085.8
308.15 K, 55000 kPa | 1089.07
308.15 K, 60000 kPa | 1092.23
308.15 K, 65000 kPa | 1095.31
313.15 K, 100 kPa | 1040.68
313.15 K, 2000 kPa | 1042.52
313.15 K, 5000 kPa | 1045.35
313.15 K, 7000 kPa | 1047.19
313.15 K, 10000 kPa | 1049.91
313.15 K, 15000 kPa | 1054.25
313.15 K, 20000 kPa | 1058.47
313.15 K, 25000 kPa | 1062.52
313.15 K, 30000 kPa | 1066.43
313.15 K, 35000 kPa | 1070.21
313.15 K, 40000 kPa | 1073.88
313.15 K, 45000 kPa | 1077.41
313.15 K, 50000 kPa | 1080.86
313.15 K, 55000 kPa | 1084.2
313.15 K, 60000 kPa | 1087.42
313.15 K, 65000 kPa | 1090.59
318.15 K, 100 kPa | 1034.64
318.15 K, 2000 kPa | 1036.54
318.15 K, 5000 kPa | 1039.44
318.15 K, 7000 kPa | 1041.36
318.15 K, 10000 kPa | 1044.15
318.15 K, 15000 kPa | 1048.65
318.15 K, 20000 kPa | 1052.97
318.15 K, 25000 kPa | 1057.12
318.15 K, 30000 kPa | 1061.15
318.15 K, 35000 kPa | 1065.02
318.15 K, 40000 kPa | 1068.77
318.15 K, 45000 kPa | 1072.41
318.15 K, 50000 kPa | 1075.92
318.15 K, 55000 kPa | 1079.33
318.15 K, 60000 kPa | 1082.65
318.15 K, 65000 kPa | 1085.87
323.15 K, 100 kPa | 1028.59
323.15 K, 2000 kPa | 1030.52
323.15 K, 5000 kPa | 1033.54
323.15 K, 7000 kPa | 1035.52
323.15 K, 10000 kPa | 1038.37
323.15 K, 15000 kPa | 1042.99
323.15 K, 20000 kPa | 1047.45
323.15 K, 25000 kPa | 1051.73
323.15 K, 30000 kPa | 1055.85
323.15 K, 35000 kPa | 1059.82
323.15 K, 40000 kPa | 1063.67
323.15 K, 45000 kPa | 1067.38
323.15 K, 50000 kPa | 1070.98
323.15 K, 55000 kPa | 1074.48
323.15 K, 60000 kPa | 1077.86
323.15 K, 65000 kPa | 1081.13
328.15 K, 100 kPa | 1022.43
328.15 K, 2000 kPa | 1024.49
328.15 K, 5000 kPa | 1027.57
328.15 K, 7000 kPa | 1029.6
328.15 K, 10000 kPa | 1032.58
328.15 K, 15000 kPa | 1037.33
328.15 K, 20000 kPa | 1041.91
328.15 K, 25000 kPa | 1046.31
328.15 K, 30000 kPa | 1050.54
328.15 K, 35000 kPa | 1054.61
328.15 K, 40000 kPa | 1058.55
328.15 K, 45000 kPa | 1062.36
328.15 K, 50000 kPa | 1066.05
328.15 K, 55000 kPa | 1069.6
328.15 K, 60000 kPa | 1073.07
328.15 K, 65000 kPa | 1076.42
333.15 K, 100 kPa | 1016.27
333.15 K, 2000 kPa | 1018.35
333.15 K, 5000 kPa | 1021.56
333.15 K, 7000 kPa | 1023.65
333.15 K, 10000 kPa | 1026.72
333.15 K, 15000 kPa | 1031.63
333.15 K, 20000 kPa | 1036.34
333.15 K, 25000 kPa | 1040.87
333.15 K, 30000 kPa | 1045.21
333.15 K, 35000 kPa | 1049.39
333.15 K, 40000 kPa | 1053.43
333.15 K, 45000 kPa | 1057.32
333.15 K, 50000 kPa | 1061.09
333.15 K, 55000 kPa | 1064.72
333.15 K, 60000 kPa | 1068.26
333.15 K, 65000 kPa | 1071.7
338.15 K, 100 kPa | 1010.08
338.15 K, 2000 kPa | 1012.22
338.15 K, 5000 kPa | 1015.53
338.15 K, 7000 kPa | 1017.69
338.15 K, 10000 kPa | 1020.86
338.15 K, 15000 kPa | 1025.92
338.15 K, 20000 kPa | 1030.78
338.15 K, 25000 kPa | 1035.41
338.15 K, 30000 kPa | 1039.88
338.15 K, 35000 kPa | 1044.17
338.15 K, 40000 kPa | 1048.31
338.15 K, 45000 kPa | 1052.28
338.15 K, 50000 kPa | 1056.13
338.15 K, 55000 kPa | 1059.87
338.15 K, 60000 kPa | 1063.48
338.15 K, 65000 kPa | 1066.99
